Laboratory results published in publication PMC5653814, “Regiospecific Synthesis of Ring A Fused Withaferin A Isoxazoline Analogues: Induction of Premature Senescence by W-2b in Proliferating Cancer Cells” (Scientific Reports, 2017).
Read-outs that look alike come from different tables or passages of the source.

Key:
MCF7 cells [1] = assay: MTT cell viability assay, MCF7; type: cell-based, human; settings: read-out: Cytotoxicity IC50, MCF7
Method: (§1) The cell viability assay was performed according to the procedure previously described with minor modifications. Briefly, MCF7, HCT-116 and fR2 cells were plated in 96 well plates at a density of 5 × 10^3 cells per well and incubated overnight. […] MTT dye solution (2.5 mg/mL) was introduced to the cells in medium 4 h before the completion of the treatment period and the formed formazan crystals were solubilized with DMSO. Optical density was measured with the help of a UV-visible spectrophotometer coupled with microplate reader (TECAN, Infinite M200 Pro), the percent inhibition was calculated and IC50 values were determined with the help of GraphPad Prism software (GraphPad software Inc. CA, USA).
(§2) Data were expressed as the mean ± standard deviation of three independent experiments performed and analyzed by Student’s t-test. IC50 values were determined with the help of GraphPad Prism software Version 5.0 (GraphPad Software, Inc., USA) by taking the log of inhibitor vs. response. A 2-sided value of *P < 0.05 was considered significant in all cases.

[2] = MTT cell viability assay, fR2 normal breast epithelial cells; type: cell-based, human; settings: human, fR2 normal breast epithelial cells, read-out: Cytotoxicity IC50, fR2
Method: as §1, §2

HCT-116 cells [3] = assay: MTT cell viability assay, HCT-116; type: cell-based, human; settings: read-out: Cytotoxicity IC50, HCT-116
Method: as §1, §2

fR2 cells = assay: MTT cell viability assay, fR2 normal breast epithelial cells; type: cell-based, human; settings: 48 h, read-out: Cytotoxicity IC50, fR2
Method: as §1, §2

[4] = system: 4T1 mouse mammary carcinoma; assay: In vivo tumor growth, 4T1 mouse mammary carcinoma model; settings: 25 mg/kg b.w. intraperitoneal, each alternate day for two weeks
Method: The experiment was performed according to the pre-standardized protocol with minor modifications. To evaluate the in vivo anti-tumor efficacy of W-2b, healthy female Balb/c mice (25–30 g) were taken. Animals were randomized into three groups, and six animals were taken per group. For the tumor cells implantation, mouse mammary carcinoma 4T1 cells (1 × 10^6 per 200 μL) diluted in serum-free RPMI medium were injected subcutaneously into the mammary pad of each mouse around the second right mammary gland. A week after tumor cell implantation, when the palpable mammary tumors develop, mice were injected intraperitoneally with either vehicle (normal saline) or 5-FU (25 mg/kg/b.w.) or W-2b (25 mg/kg/b.w.) in each alternative day for two weeks. Tumor sizes were measured in each alternate day after tumor cell injection, and the body weight was recorded once in a week. Mice were sacrificed on the 15th day after treatment initiation, and tumors were dissected out carefully from the mammary pad area.

HCT-116 cells [5] = assay: SA-β-gal activity assay, HCT-116; type: cell-based, human; settings: HCT-116, five days; doxorubicin 100 nM, WA 2–3 µM
Method: (§3) The procedure was followed as described previously with some modifications. Briefly, MCF7 and HCT-116 cells (0.4 × 10^6 per well) were seeded in six-well plates and treated with indicated concentrations of W-2b along with WA, vehicle and positive control doxorubicin for five days. Cells were accordingly washed twice with PBS, fixed with 4% paraformaldehyde for 5 min, rinsed twice with PBS and incubated with freshly prepared staining solution (40 mM citric acid/Na phosphate buffer, 5 mM K4[Fe(CN)6] 3H2O, 5 mM K3[Fe(CN)6], 150 mM sodium chloride, 2 mM magnesium chloride and 1 mg/ml X-gal in distilled water, pH 6.0) for 48 h at 37 °C. Stained cells were thoroughly washed and air dried in dark. Cells were then observed under bright field microscope (NIKON) for the SA-β-gal positive cells and images were captured at 20x magnification.

MCF7 cells [6] = assay: SA-β-gal activity assay, MCF7; type: cell-based, human; settings: MCF7, five days; doxorubicin 100 nM, WA 2–3 µM
Method: as §3

[7] = Homo sapiens, HCT-116, 48 h, 48 h

Row | SMILES | IC50 (MCF7 cells [1]; Homo sapiens, MCF7, 48 h, 48 h) [µM] | IC50 at 48 h [2] [µM] | IC50 (HCT-116 cells [3]; [7]) [µM] | IC50 (MCF7 cells [1]; 48 h) [µM] | IC50 (HCT-116 cells [3]; 48 h) [µM] | further results
1 | CC(=O)OCC1=C(C)C[C@H]([C@@H](C)C2CCC3C4C[C@H]5O[C@]56[C@@H](OC(C)=O)[C@@H]5ON=C(c7ccc(F)cc7)[C@@H]5C(=O)[C@]6(C)C4CC[C@@]32C)OC1=O (stereo partly drawn) [W-12b, 4-fluorophenyl-2-isoxazoline 4,27-acetylwithaferin A] | 26.9 ± 2.22 | 75.6 ± 4.82 | 5.29 ± 0.151 |  |  | 
2 | CC1=C(CO)C(=O)OC(C(C)C2CCC3C4CC5OC56C(O)C5ON=C(c7ccncc7)C5C(=O)C6(C)C4CCC23C)C1 (stereo not drawn) [W-5b, pyridenyl-2-isoxazoline withaferin A] |  |  |  | 9.7 ± 0.55 | 42.4 ± 3.19 | IC50 (fR2 cells): 91.2 ± 7.33 µM
3 | CC1=C(CO)C(=O)OC(C(C)C2CCC3C4CC5OC56C(O)C5ON=C(c7ccc(Cl)cc7Cl)C5C(=O)C6(C)C4CCC23C)C1 (stereo not drawn) [W-6a] |  | > 100 |  | 2.28 ± 0.265 | > 100 | 
4 | CC1=C(CO)C(=O)O[C@@H]([C@@H](C)C2CCC3C4C[C@H]5O[C@]56[C@@H](O)[C@H]5ON=C(c7ccc(Cl)cc7)[C@H]5C(=O)[C@]6(C)C4CC[C@@]32C)C1 (stereo partly drawn) [W-1a, 4-chlorophenyl-2-isoxazoline withaferin A] | 3.8 ± 0.378 | 45.8 ± 5.19 | 5.62 ± 0.412 |  |  | 
5 | CC1=C(CO)C(=O)OC(C(C)C2CCC3C4CC5OC56C(O)C5ON=C(c7ccc(Br)cc7)C5C(=O)C6(C)C4CCC23C)C1 (stereo not drawn) [W-3a, 4-bromophenyl-2-isoxazoline withaferin A] |  | > 100 |  | 95.5 ± 5.41 | 45.8 ± 2.34 | 
6 | COc1cc(C(F)(F)F)ccc1C1=NOC2C1C(=O)C1(C)C3CCC4(C)C(C(C)C5CC(C)=C(CO)C(=O)O5)CCC4C3CC3OC31C2O (stereo not drawn) [W-9b, 2-methoxy-4-trifluorophenyl-2-isoxazoline withaferin A] | > 100 | 66.2 ± 7.63 | 15.8 ± 3.31 |  |  | 
7 | CC1=C(CO)C(=O)OC(C(C)C2CCC3C4CC5OC56C(O)C5ON=C(c7ccc(F)cc7)C5C(=O)C6(C)C4CCC23C)C1 (stereo not drawn) [W-4b, 4-fluorophenyl-2-isoxazoline withaferin A] | > 100 | > 100 |  |  | > 100 | 
8 | CC1=C(CO)C(=O)OC(C(C)C2CCC3C4CC5OC56C(O)C5ON=C(c7ccc([N+](=O)[O-])cc7)C5C(=O)C6(C)C4CCC23C)C1 (stereo not drawn) [W-2a, 4-nitrophenyl-2-isoxazoline withaferin A] |  | 52.1 ± 6.6 |  | 5.82 ± 0.418 | 8.2 ± 0.211 | 
9 | CC1=C(CO)C(=O)OC(C(C)C2CCC3C4CC5OC56C(O)C5ON=C(c7ccc(C(F)(F)F)cc7)C5C(=O)C6(C)C4CCC23C)C1 (stereo not drawn) [W-11a, 4-trifluorophenyl-2-isoxazoline withaferin A] | > 100 | > 100 |  |  | 24.5 ± 2.55 | 
10 | O=c1[nH]cc(F)c(=O)[nH]1 [5-FU, 5-fluorouracil, reference compound] |  |  |  |  |  | Inhibition in tumor volume ([4]; Balb/c mice): 78.4%; Inhibition in tumor weight ([4]; vs normal saline group): 86.7%
11 | CC1=C(CO)C(=O)O[C@@H]([C@@H](C)[C@H]2CC[C@H]3[C@@H]4C[C@H]5O[C@]56[C@@H](O)C=CC(=O)[C@]6(C)[C@H]4CC[C@]23C)C1 [WA, Withaferin A] | 1.75 ± 0.376 | 43.3 ± 3.77 | 2.58 ± 0.415 |  |  | SA-β-gal staining, senescent cells (in words) (HCT-116 cells [5]): very less number of senescent cells; IC50 (MCF7 cells [1]; Homo sapiens, MCF7, 24 h, 24 h): 9.18 ± 1.36 µM; IC50 (MCF7 cells [1]; Homo sapiens, MCF7, 72 h, 72 h): 1.46 ± 0.291 µM; IC50 at 24 h ([2]; 24 h): 51.1 ± 5.18 µM; IC50 at 72 h ([2]; 72 h): 38.3 ± 5.22 µM; SA-β-gal staining, senescent cells (in words) (MCF7 cells [6]): very less number of senescent cells; IC50 (HCT-116 cells [3]; Homo sapiens, HCT-116, 24 h, 24 h): 4.38 ± 1.67 µM; IC50 (HCT-116 cells [3]; Homo sapiens, HCT-116, 72 h, 72 h): 2.13 ± 0.55 µM
12 | CC1=C(CO)C(=O)OC(C(C)C2CCC3C4CC5OC56C(O)C5ON=C(c7c(Cl)cccc7Cl)C5C(=O)C6(C)C4CCC23C)C1 (stereo not drawn) [W-10a, 2,6-dichlorophenyl-2-isoxazoline withaferin A] | 58.3 ± 3.24 | 98.1 ± 7.18 | 5.28 ± 0.561 |  |  | 
13 | CC1=C(CO)C(=O)OC(C(C)C2CCC3C4CC5OC56C(O)C5ON=C(c7ccncc7)C5C(=O)C6(C)C4CCC23C)C1 (stereo not drawn) [W-5a, pyridenyl-2-isoxazoline withaferin A] |  | > 100 | 63.8 ± 5.43 | 3.52 ± 0.185 |  | 
14 | CC1=C(CO)C(=O)OC(C(C)C2CCC3C4CC5OC56C(O)C5ON=C(c7ccccc7C(F)(F)F)C5C(=O)C6(C)C4CCC23C)C1 (stereo not drawn) [W-8a, 2-trifluoromethylphenyl-2-isoxazoline withaferin A] | 17.6 ± 1.68 | 28.2 ± 4.21 | 7.5 ± 1.13 |  |  | 
15 | CC1=C(CO)C(=O)O[C@@H]([C@@H](C)C2CCC3C4C[C@H]5O[C@]56[C@@H](O)[C@@H]5ON=C(c7ccc(Cl)cc7)[C@@H]5C(=O)[C@]6(C)C4CC[C@@]32C)C1 (stereo partly drawn) [W-1b, 4-chlorophenyl-2-isoxazoline withaferin A] | 1.64 ± 0.267 | 39.2 ± 3.81 | 16.2 ± 0.676 |  |  | 
16 | CC1=C(CO)C(=O)OC(C(C)C2CCC3C4CC5OC56C(O)C5ON=C(c7ccc(Br)cc7)C5C(=O)C6(C)C4CCC23C)C1 (stereo not drawn) [W-3b, 4-bromophenyl-2-isoxazoline withaferin A] |  |  |  | 1.82 ± 0.33 | 15.9 ± 1.67 | IC50 (fR2 cells): 85.3 ± 9.5 µM
17 | COc1cccc2c1C(=O)c1c(O)c3c(c(O)c1C2=O)C[C@@](O)(C(=O)CO)C[C@@H]3O[C@H]1C[C@H](N)[C@H](O)[C@H](C)O1 [doxorubicin] |  |  |  |  |  | SA-β-gal staining, senescent cells (in words) (HCT-116 cells [5]): substantial increase in the number of cells with distinct senescence phenotype; SA-β-gal staining, senescent cells (in words) (MCF7 cells [6]): substantial increase in the number of cells with distinct senescence phenotype
18 | CC1=C(CO)C(=O)OC(C(C)C2CCC3C4CC5OC56C(O)C5ON=C(c7ccc(F)cc7)C5C(=O)C6(C)C4CCC23C)C1 (stereo not drawn) [W-4a, 4-fluorophenyl-2-isoxazoline withaferin A] |  |  |  | > 100 | 19.6 ± 1.81 | IC50 (fR2 cells): > 100 µM
19 | COc1ccc(Br)cc1C1=NOC2C1C(=O)C1(C)C3CCC4(C)C(C(C)C5CC(C)=C(CO)C(=O)O5)CCC4C3CC3OC31C2O (stereo not drawn) [W-7a, 3-bromo-6-methoxyphenyl-2-isoxazoline withaferin A] | 70.6 ± 5.18 | > 100 | 8.1 ± 1.66 |  |  | 
20 | CC1=C(CO)C(=O)OC(C(C)C2CCC3C4CC5OC56C(O)C5ON=C(c7ccc(C(F)(F)F)cc7)C5C(=O)C6(C)C4CCC23C)C1 (stereo not drawn) [W-11b, 4-trifluorophenyl-2-isoxazoline withaferin A] |  |  |  | 83.3 ± 6.51 | 4.16 ± 0.344 | IC50 (fR2 cells): > 100 µM
